# According to ChEMBL document CHEMBL4732045, “Amide Bond Bioisosteres: Strategies, Synthesis, and Successes” (J Med Chem, 2020):
# Square brackets hold non-standard residues; d marks the D form. Peptide text beside a SMILES is read from it. PhLac = O=C(O)[C@@H](O)Cc1ccccc1
# Legend:
# [1] = system: Poly(dG-dC)oligonucleotide; experiment: Binding affinity to poly (dG-dC) (unknown origin) by ethidium displacement assay; format: nucleic-acid assay
# [2] = system: Poly(dA-dT)oligonucleotide; experiment: Binding affinity to poly (dA-dT) (unknown origin) by ethidium displacement assay; format: nucleic-acid assay
# MDA-MB-231 = experiment: Antiproliferative activity against human MDA-MB-231 cells; format: functional, cell-based
# [3] = target: D(2) dopamine receptor (Bos taurus) (UniProt P20288); experiment: Modulation of [3H]Spiroperidol/N-Propylnorapomorphine binding to dopamine D2 receptor in bovine striatal membranes incubated for 1 hr by Cheng-Prusoff analysis; format: cell membranes; settings: Striatum, Membrane, filed as modulator
# [4] = target: D(2) dopamine receptor (Bos taurus) (UniProt P20288); experiment: Modulation of [3H]Spiroperidol/N-Propylnorapomorphine binding to dopamine D2 receptor in bovine striatal membranes incubated for 1 hr in presence of Gpp(NH)p by Cheng-Prusoff analysis; format: cell membranes; settings: Striatum, Membrane, filed as modulator
# Integrin alpha-4/beta-1 = Integrin alpha-4/beta-1 (Homo sapiens, UniProt P05556+P13612); experiment: Displacement of 125I-VCAM-Ig from VLA4 in human Jurkat cells incubated for 30 mins by scintillation counting method; format: cell-based
# L1210 = experiment: Antiproliferative activity against mouse L1210 cells incubated for 48 hrs by Coulter counter method; format: functional, cell-based; settings: L1210, 48 h
# [5] = Growth inhibition of BAEC incubated for 3 days by Coulter counter method; settings: Bos taurus, 72 h
# CCRF-CEM = experiment: Antiproliferative activity against human CEM cells incubated for 96 hrs by Coulter counter method; format: functional, cell-based
# HeLa = experiment: Antiproliferative activity against human HeLa cells incubated for 4 days by Coulter counter method; format: functional, cell-based; settings: 96 h
# HMEC-1 = experiment: Growth inhibition of HMEC-1 incubated for 4 days by Coulter counter method; format: cell-based; settings: Homo sapiens, HMEC-1, 96 h
# [6] = target: Delta-type opioid receptor (Mus musculus, UniProt P32300); experiment: Inhibition of [3H]-Deltorphin 2 binding to mouse delta opioid receptor expressed in rat GH3 cell membranes by Cheng-Prusoff analysis; set-up: species or system Cell membrane
# [7] = system: Human immunodeficiency virus 1; experiment: Antiviral activity against HIV1 3b isolate infected in human MT4 cells assessed as blockade of viral spread pretreated for 24 hrs followed by viral infection and subsequently treated with compound every 2 to 3 days post infection by ELISA; format: functional; settings: Human immunodeficiency virus 1, 3b isolate, read-out: CIC95
# [8] = Inhibition of HIV2 protease; set-up: species or system Human immunodeficiency virus 2
# Mus musculus [9] = experiment: Immunosuppressive activity in B6D2F1 mouse model of graft-versus-host disease assessed as mean survival days at 1 mg/kg, ip administered for day 1 to day 10 (day 6 omitted) and measured at day 60; format: functional; settings: time 60 day
# Mus musculus [10] = experiment: Immunosuppressive activity in B6D2F1 mouse model of graft-versus-host disease assessed as mean survival days at 3 mg/kg, ip administered for day 1 to day 10 (day 6 omitted) and measured at day 60; format: functional; settings: time 60 day
# Rattus norvegicus = experiment: Immunosuppressive activity in Lewis rat model of Heart Allotransplantation assessed as mean survival days at 6 mg/kg, ip administered for 10 days by Manntel-Haenszel test; format: functional; settings: time 10 day
# [11] = target: T1, Human immunodeficiency virus type 1 protease (Human immunodeficiency virus 1, UniProt Q72874); experiment: Inhibition of HIV-1 protease
# Cannabinoid receptor 1 = Cannabinoid receptor 1 (Homo sapiens, UniProt P21554); experiment: Displacement of [3H]CP-55940 from human CB1 receptor expressed in HEK cells by competitive binding assay; format: cell-based
# [12] = Inhibition of ACAT in cholesterol-fed New Zealand rabbit intestional microsomes using [1-14C]oleoyl-CoA as substrate preincubated for 5 mins followed by substrate addition and measured after 5 mins by liquid scintillation counting method; set-up: species or system Oryctolagus cuniculus, Intestine, Microsome
# A549 = experiment: Cytotoxicity against human A549 cells incubated for 96 hrs by MTT assay; format: functional, cell-based; settings: A549, 96 h
# CAKI-2 = experiment: Cytotoxicity against human Caki-2 cells incubated for 96 hrs by MTT assay; format: functional, cell-based; settings: CAKI-2, 96 h
# PC-3 = experiment: Cytotoxicity against human PC-3 cells incubated for 96 hrs by MTT assay; format: functional, cell-based; settings: PC-3, 96 h
# HT-29 = experiment: Cytotoxicity against human HT-29 cells incubated for 96 hrs by MTT assay; format: functional, cell-based; settings: HT-29, 96 h
# HL-60 = experiment: Cytotoxicity against human HL-60 cells incubated for 96 hrs by MTT assay; format: functional, cell-based; settings: HL-60, 96 h
# Cannabinoid receptor 2 = Cannabinoid receptor 2 (Homo sapiens, UniProt P34972); experiment: Displacement of [3H]CP-55940 from human CB2 receptor expressed in HEK cells by competitive binding assay; format: cell-based
# [13] = Selectivity index, ratio of Ki for human CB1 receptor expressed in HEK cells to Ki for human CB2 receptor expressed in HEK cells
# [14] = target: T1, Human immunodeficiency virus type 1 protease; experiment: Inhibition of HIV1 protease
# [15] = Half life in monkey at 10 mg/kg, po; format: ADME, organism-based, Macaca mulatta; settings: rhesus monkey, in vivo
# [16] = Oral bioavailability in monkey at 10 mg/kg; format: ADME, organism-based, Macaca mulatta; settings: rhesus monkey, in vivo
# [17] = target: 72 kDa type IV collagenase (Homo sapiens, UniProt P08253); experiment: Inhibition of TNF-induced MMP2 isolated from human HT-1080 cell medium by fluorometric assay; format: tissue-based
# Interstitial collagenase = Interstitial collagenase (Homo sapiens, UniProt P03956); experiment: Inhibition of PMA-induced human skin fibroblast derived MMP1 by fluorometric assay; format: tissue-based
# Matrilysin = Matrilysin (Homo sapiens, UniProt P09237); experiment: Inhibition of human MMP7 by fluorometric assay
# Stromelysin-1 = Stromelysin-1 (Homo sapiens, UniProt P08254); experiment: Inhibition of human MMP3 by fluorometric assay
# Stromelysin-1, sequence (P08254 whole entry): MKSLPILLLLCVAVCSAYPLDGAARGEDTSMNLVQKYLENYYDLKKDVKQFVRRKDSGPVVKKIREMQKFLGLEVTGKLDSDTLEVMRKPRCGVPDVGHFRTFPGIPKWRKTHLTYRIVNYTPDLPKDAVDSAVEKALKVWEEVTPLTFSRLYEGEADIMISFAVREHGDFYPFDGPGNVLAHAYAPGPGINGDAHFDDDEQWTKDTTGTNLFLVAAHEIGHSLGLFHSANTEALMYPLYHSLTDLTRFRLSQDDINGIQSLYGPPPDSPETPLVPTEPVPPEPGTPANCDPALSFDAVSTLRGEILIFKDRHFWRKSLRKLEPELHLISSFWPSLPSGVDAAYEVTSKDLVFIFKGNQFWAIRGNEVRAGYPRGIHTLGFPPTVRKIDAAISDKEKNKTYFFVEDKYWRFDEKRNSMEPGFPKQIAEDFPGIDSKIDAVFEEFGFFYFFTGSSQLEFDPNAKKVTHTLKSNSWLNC
# Delta-type opioid receptor, sequence (P32300 whole entry): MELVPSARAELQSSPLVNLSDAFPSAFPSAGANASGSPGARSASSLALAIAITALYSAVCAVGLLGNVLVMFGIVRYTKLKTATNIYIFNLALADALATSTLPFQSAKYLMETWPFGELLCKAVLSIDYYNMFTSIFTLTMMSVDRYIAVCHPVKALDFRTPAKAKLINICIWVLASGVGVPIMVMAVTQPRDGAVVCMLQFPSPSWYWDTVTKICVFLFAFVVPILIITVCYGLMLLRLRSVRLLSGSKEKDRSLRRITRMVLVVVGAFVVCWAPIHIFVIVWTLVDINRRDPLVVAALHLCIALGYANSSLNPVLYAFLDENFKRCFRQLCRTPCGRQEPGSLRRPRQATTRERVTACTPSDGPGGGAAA
# D(2) dopamine receptor (Bos taurus), sequence (P20288 whole entry): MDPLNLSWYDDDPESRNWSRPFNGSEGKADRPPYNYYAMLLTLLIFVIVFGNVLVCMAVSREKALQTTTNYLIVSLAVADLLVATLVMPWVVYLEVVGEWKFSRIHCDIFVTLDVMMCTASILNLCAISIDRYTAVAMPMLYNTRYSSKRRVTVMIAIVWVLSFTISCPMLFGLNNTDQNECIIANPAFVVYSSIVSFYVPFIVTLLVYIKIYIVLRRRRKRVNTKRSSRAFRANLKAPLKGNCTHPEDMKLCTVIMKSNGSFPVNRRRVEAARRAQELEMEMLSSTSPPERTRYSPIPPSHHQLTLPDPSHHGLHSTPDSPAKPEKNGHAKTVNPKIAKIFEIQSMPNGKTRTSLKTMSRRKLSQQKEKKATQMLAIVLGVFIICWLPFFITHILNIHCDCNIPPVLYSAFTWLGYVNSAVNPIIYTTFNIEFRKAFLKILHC
# Cannabinoid receptor 1, sequence (P21554 whole entry): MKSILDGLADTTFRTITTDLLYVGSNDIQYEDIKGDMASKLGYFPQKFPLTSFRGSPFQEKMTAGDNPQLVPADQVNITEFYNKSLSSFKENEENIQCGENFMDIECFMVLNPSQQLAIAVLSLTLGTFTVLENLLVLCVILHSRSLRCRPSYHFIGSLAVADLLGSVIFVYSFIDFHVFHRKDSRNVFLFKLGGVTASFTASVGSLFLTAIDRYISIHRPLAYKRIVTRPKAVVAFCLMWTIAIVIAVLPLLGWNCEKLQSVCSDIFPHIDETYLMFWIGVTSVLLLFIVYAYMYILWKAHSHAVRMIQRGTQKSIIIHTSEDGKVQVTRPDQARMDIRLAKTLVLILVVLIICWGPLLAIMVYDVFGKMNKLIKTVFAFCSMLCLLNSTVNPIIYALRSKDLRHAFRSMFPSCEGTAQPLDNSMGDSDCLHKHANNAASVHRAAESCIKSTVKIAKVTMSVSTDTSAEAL
# Cannabinoid receptor 2, sequence (P34972 whole entry): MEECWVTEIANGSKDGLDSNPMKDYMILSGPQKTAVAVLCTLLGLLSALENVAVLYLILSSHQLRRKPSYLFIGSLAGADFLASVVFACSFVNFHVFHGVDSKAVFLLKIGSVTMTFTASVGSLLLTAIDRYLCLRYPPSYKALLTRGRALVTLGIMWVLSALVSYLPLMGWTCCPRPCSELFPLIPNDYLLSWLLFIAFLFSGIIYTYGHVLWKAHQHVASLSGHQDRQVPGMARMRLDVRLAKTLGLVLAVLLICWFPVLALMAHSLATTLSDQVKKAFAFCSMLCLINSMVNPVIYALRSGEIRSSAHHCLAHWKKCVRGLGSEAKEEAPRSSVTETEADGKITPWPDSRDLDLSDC
# Integrin alpha-4/beta-1, sequence (P05556 whole entry): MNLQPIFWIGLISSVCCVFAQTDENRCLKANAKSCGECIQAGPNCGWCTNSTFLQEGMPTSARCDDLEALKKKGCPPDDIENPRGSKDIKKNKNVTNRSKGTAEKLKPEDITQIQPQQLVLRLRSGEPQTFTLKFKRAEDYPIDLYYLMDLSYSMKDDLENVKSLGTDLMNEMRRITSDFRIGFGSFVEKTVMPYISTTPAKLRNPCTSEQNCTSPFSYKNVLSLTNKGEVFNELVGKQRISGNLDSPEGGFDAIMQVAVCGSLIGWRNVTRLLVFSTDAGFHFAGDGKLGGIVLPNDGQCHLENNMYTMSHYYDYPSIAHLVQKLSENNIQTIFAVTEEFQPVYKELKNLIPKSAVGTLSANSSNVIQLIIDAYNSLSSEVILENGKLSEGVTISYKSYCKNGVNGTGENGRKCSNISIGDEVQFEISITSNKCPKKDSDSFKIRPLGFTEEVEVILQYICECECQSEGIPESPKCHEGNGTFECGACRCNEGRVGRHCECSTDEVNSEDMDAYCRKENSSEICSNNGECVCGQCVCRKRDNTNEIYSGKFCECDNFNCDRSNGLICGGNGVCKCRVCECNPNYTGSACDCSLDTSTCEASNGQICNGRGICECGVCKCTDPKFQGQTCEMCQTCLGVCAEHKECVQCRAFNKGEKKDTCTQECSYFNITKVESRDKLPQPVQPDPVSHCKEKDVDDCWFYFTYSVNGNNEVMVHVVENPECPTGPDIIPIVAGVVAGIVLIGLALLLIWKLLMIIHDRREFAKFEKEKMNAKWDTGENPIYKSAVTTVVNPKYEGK
# Integrin alpha-4/beta-1, sequence (P13612 whole entry): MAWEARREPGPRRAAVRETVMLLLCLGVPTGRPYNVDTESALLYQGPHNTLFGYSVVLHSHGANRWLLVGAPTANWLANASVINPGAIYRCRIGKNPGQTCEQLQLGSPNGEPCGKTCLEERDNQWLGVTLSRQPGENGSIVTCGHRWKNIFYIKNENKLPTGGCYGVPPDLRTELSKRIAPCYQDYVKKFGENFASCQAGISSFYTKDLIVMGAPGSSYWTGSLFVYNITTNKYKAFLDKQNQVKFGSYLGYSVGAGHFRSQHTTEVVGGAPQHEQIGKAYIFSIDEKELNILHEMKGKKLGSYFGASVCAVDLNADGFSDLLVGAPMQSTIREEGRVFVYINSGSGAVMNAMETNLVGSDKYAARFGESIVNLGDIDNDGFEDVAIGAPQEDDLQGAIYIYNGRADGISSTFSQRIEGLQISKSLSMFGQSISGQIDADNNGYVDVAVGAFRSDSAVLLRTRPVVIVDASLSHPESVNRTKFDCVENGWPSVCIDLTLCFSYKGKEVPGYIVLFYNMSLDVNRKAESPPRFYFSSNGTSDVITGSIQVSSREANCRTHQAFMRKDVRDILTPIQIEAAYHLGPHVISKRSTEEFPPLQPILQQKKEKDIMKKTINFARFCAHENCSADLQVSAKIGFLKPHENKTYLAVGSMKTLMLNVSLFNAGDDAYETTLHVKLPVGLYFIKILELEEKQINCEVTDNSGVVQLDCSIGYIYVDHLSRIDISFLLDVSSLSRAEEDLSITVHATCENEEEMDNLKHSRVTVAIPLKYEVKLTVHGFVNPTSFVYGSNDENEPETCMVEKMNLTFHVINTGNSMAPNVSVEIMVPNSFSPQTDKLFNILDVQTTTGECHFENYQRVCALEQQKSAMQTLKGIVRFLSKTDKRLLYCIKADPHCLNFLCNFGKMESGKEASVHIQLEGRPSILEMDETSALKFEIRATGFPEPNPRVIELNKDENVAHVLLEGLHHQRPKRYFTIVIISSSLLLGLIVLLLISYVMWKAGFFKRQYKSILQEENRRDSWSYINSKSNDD
# 72 kDa type IV collagenase, sequence (P08253 whole entry): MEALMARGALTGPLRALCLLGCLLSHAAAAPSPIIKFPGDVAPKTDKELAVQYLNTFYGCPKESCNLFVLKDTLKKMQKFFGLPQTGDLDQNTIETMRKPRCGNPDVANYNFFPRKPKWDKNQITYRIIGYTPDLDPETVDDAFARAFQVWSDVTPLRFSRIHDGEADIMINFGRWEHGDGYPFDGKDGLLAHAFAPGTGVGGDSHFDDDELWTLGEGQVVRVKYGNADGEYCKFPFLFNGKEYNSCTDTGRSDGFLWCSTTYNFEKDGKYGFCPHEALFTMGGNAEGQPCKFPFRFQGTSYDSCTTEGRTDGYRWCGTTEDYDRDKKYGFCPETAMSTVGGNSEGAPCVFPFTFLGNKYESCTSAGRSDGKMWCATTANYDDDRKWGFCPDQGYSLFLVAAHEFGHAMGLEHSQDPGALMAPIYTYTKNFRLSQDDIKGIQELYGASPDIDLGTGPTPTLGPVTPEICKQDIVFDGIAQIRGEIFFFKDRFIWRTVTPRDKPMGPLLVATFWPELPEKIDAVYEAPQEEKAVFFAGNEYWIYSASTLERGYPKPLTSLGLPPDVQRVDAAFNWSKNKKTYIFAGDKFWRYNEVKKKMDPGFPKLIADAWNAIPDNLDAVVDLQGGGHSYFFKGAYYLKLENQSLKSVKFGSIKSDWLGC
# Matrilysin, sequence (P09237 whole entry): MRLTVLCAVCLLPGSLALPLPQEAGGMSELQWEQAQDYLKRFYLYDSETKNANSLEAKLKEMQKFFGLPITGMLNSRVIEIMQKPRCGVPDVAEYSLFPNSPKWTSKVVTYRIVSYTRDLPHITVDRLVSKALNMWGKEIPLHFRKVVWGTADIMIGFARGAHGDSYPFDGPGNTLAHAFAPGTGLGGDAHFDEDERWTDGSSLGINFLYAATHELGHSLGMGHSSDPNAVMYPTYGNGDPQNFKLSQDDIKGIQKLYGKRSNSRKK
structure (smiles),measurement,setting,value
CN(C)CCCNC(=O)c1cc(NC(=O)c2cc(NC(=O)c3cc(NC=O)cn3C)cn2C)cn1C,Kapp,[1],0.9 10^5/M
same,Kapp,[2],150 10^5/M
COc1ccc(C(=O)NCc2ccc3c(c2)OCO3)cc1,IC50,MDA-MB-231,≥ 200000 nM
CC(C)C[C@H](NC[C@@H]1CCCN1)C(=O)NCC(N)=O,KiH,[3],0.09 nM
same,KiL,[3],73.2 nM
same,KiH,[4],0.13 nM
same,KiL,[4],60 nM
COc1cccc(OC)c1-c1ccc(C[C@H](N=C(N)[C@@H]2CCN2S(=O)(=O)c2ccccc2)C(=O)O)cc1,IC50,Integrin alpha-4/beta-1,0.1 nM
Cn1cc(NC(=O)c2cc(NC(=O)c3cc(NC=O)cn3C)cn2C)cc1C(=O)NCCC(=N)N,Kapp,[1],1.3 10^5/M
same,Kapp,[2],345 10^5/M
CS(=O)(=O)c1ccc(-c2cn(-c3ccc(Cl)c(-c4ccccn4)c3)nn2)c(Cl)c1,IC50,L1210,82000 nM
same,IC50,[5],40000 nM
same,IC50,CCRF-CEM,50000 nM
same,IC50,HeLa,> 100000 nM
same,IC50,HMEC-1,9600 nM
O=C(OCc1ccc2c(c1)OCO2)c1ccc(Cl)c(Cl)c1,IC50,MDA-MB-231,≥ 200000 nM
NC(=O)CN1CC[C@@H](N2CC(=O)N3CCC[C@H]3C2=O)C1=O,KiH,[3],0.08 nM
same,KiL,[3],69 nM
same,KiH,[4],0.19 nM
same,KiL,[4],50 nM
COC(=O)c1ccc(-c2cn(-c3cccc(-c4ccccc4)c3)nn2)cc1,IC50,L1210,1100 nM
same,IC50,[5],420 nM
same,IC50,CCRF-CEM,920 nM
same,IC50,HeLa,1100 nM
same,IC50,HMEC-1,620 nM
CC(C)C[C@H](NC(=O)[C@H](Cc1ccccc1)N/C=C/NC(=O)CNC(=O)[C@@H](N)Cc1ccc(O)cc1)C(=O)O,Ki,[6],587 nM
CC(C)(C)NC(=O)[C@@H]1C[C@@H]2CCCC[C@@H]2CN1C[C@@H](O)[C@H](Cc1ccccc1)NC(=O)[C@H](CC(N)=O)NC(=O)c1ccc2ccccc2n1,IC95,[7],22 nM
same,IC50,[8],0.5 nM
CC(C)C[C@H](NC(=O)[C@H](Cc1ccccc1)OC(=O)CNC(=O)CNC(=O)[C@@H](N)Cc1ccc(O)cc1)C(=O)O (H-YGG[PhLac]L-OH),Ki,[6],34 nM
NCCCNCCCCNC(=O)CC(=O)NCCCCCCN=C(N)N,Survival,Mus musculus [9],53 days
same,Survival,Mus musculus [10],52 days
same,Survival,Rattus norvegicus,9 days
CCN(C(C)C)S(=O)(=O)CC[C@@H]1O[C@@H]1[C@H](Cc1ccccc1)NC(=O)[C@H](CC(C)(C)S(C)(=O)=O)NC(=O)c1ccc2ccccc2n1,IC50,[11],6.6 nM
NC(=O)[C@H]1CS[C@@H]2C[C@@H](N3CC(=O)N4CCC[C@H]4C3=O)C(=O)N12,KiH,[3],0.098 nM
same,KiL,[3],171 nM
same,KiH,[4],0.14 nM
same,KiL,[4],183 nM
CC(C)C[C@@H](C(=O)NCC(N)=O)N1CC(=O)N2CCC[C@H]2C1=O,KiH,[3],0.08 nM
same,KiL,[3],120 nM
same,KiH,[4],0.12 nM
same,KiL,[4],172 nM
CCCCCn1cc(-c2cn(C34CC5CC(CC(C5)C3)C4)nn2)c(=O)c2cc(-c3ccco3)ccc21,Ki,Cannabinoid receptor 1,> 10000 nM
CC(C)C(NC(=O)C[C@@H]1O[C@@H]1[C@H](Cc1ccccc1)NC(=O)[C@H](CC(N)=O)NC(=O)c1ccc2ccccc2n1)C(C)C,IC50,[11],20 nM
CC(C)c1cccc(C(C)C)c1NC(=O)NCC1(c2cccc(N(C)C)c2)CCCC1,IC50,[12],63 nM
NCCCNCCCCNC(=O)NCC(=O)NCCCCCCN=C(N)N,Survival,Mus musculus [9],42 days
same,Survival,Mus musculus [10],48 days
same,Survival,Rattus norvegicus,12 days
N=C(N)NCCCCCCNC(=O)COC(=O)NCCCCNCCCN,Survival,Mus musculus [9],46 days
same,Survival,Mus musculus [10],58 days
same,Survival,Rattus norvegicus,54 days
CC(C)C[C@H](NC(=O)[C@H](Cc1ccccc1)NC(=S)CNC(=O)CNC(=O)[C@@H](N)Cc1ccc(O)cc1)C(=O)O,Ki,[6],47 nM
CCCCCCCCCCCCCCCCCNC(=O)Nc1c(OC)cc(OC)cc1OC,IC50,[12],320 nM
CC(C)(C)NS(=O)(=O)CC[C@@H]1O[C@@H]1[C@H](Cc1ccccc1)NOC(=O)CCC(=O)NC(=O)c1ccc2ccccc2n1,IC50,[11],30 nM
CC(C)(C)NC(=O)[C@@H]1C[C@@H]2CCCC[C@@H]2CN1C[C@@H](O)[C@H](Cc1ccccc1)NC(=O)[C@@H](NC(=O)c1ccc2ccccc2n1)[C@@H]1CCOC1,IC95,[7],8 nM
same,IC50,[8],0.24 nM
CC(C)(C)NS(=O)(=O)CC[C@@H]1O[C@@H]1[C@H](Cc1ccccc1)NC(=O)[C@@H](NC(=O)OCc1ccccc1)C(C)(C)S(C)(=O)=O,IC50,[11],20.2 nM
CN(C)CCCNC(=O)c1cc(NC(=O)c2cc(/C=C/c3cc([N+](=O)[O-])cn3C)cn2C)cn1C,Kapp,[1],7.4 10^5/M
same,Kapp,[2],16.9 10^5/M
COc1cccc(OC)c1-c1ccc(C[C@H](N=C(NCC(F)(F)F)[C@@H]2CCN2S(=O)(=O)c2ccccc2)C(=O)O)cc1,IC50,Integrin alpha-4/beta-1,0.13 nM
CCCCCCCCCCCCNC(=O)N[C@@H](CO)[C@H](O)c1ccc([N+](=O)[O-])cc1,IC50,A549,60000 nM
same,IC50,CAKI-2,80000 nM
same,IC50,PC-3,36000 nM
same,IC50,HT-29,55000 nM
same,IC50,HL-60,30000 nM
CCCCCn1cc(-c2nnc(C34CC5CC(CC(C5)C3)C4)o2)c(=O)c2cc(-c3ccco3)ccc21,Ki,Cannabinoid receptor 2,6.5 nM
same,Ratio Ki,[13],>1543
same,Ki,Cannabinoid receptor 1,> 10000 nM
N=C(N)NCCCCCCC(=O)NC(O)C(=O)NCCCCNCCCN (stereo unspecified),Survival,Mus musculus [9],38 days
same,Survival,Mus musculus [10],57 days
same,Survival,Rattus norvegicus,38 days
CC(C)(C)NC(=O)[C@@H]1C[C@@H]2CCCC[C@@H]2CN1C[C@@H](O)[C@H](Cc1ccccc1)NC(=O)OC(C)(C)C,IC50,[14],≥ 3000 nM
CC(C)c1cccc(C(C)C)c1NC(=O)NCCCCCc1ccccc1,IC50,[12],17 nM
C=CC[C@H](C(=O)NO)[C@@H](CC(C)C)C(=O)N[C@@H](Cc1ccccc1)C(=O)c1c[nH]c2ccccc12,half-life,[15],20 h
same,bioavailability,[16],12%
O=S(=O)(NCc1ccc2c(c1)OCO2)c1ccccc1,IC50,MDA-MB-231,14200 nM
CN(C)CCCNC(=O)c1cc(NC(=O)c2cc(NC(=O)c3cc([N+](=O)[O-])cn3C)cn2C)cn1C,Kapp,[1],3.5 10^5/M
same,Kapp,[2],8.7 10^5/M
CS(=O)(=O)c1ccc(C(=O)Nc2ccc(Cl)c(-c3ccccn3)c2)c(Cl)c1 [VISMODEGIB],IC50,L1210,49000 nM
same,IC50,[5],50000 nM
same,IC50,CCRF-CEM,58000 nM
same,IC50,HeLa,64000 nM
same,IC50,HMEC-1,41000 nM
CCCCCn1cc(-c2nc(C34CC5CC(CC(C5)C3)C4)no2)c(=O)c2cc(-c3ccco3)ccc21,Ki,Cannabinoid receptor 2,0.4 nM
same,Ratio Ki,[13],>82
same,Ki,Cannabinoid receptor 1,33 nM
C=CC[C@H](C(=O)NO)[C@@H](CC(C)C)C(=O)N[C@H](C(=O)NC)C(C)(C)C,half-life,[15],27 h
same,bioavailability,[16],15%
same,IC50,[17],0.85 nM
same,IC50,Interstitial collagenase,1.1 nM
same,IC50,Matrilysin,11 nM
same,IC50,Stromelysin-1,10 nM
